Read-outs that look alike come from different tables or passages of the source.
Key:
HIV protease = target: T1, HIV protease (Human immunodeficiency virus type 1 group M subtype B, UniProt P04585); assay: Fluorogenic Assay for Screening Inhibitors of HIV Protease; assay type: biochemical; conditions: Inhibitor Concentration 0.5 nanomolar; read-out: Percent Inhibition
T1 construct: HIV protease consists of two identical subunits, each of which has 99 amino acid residues
Description: The inhibitory potency of the compound of the invention can be determined by the following method.
The compound of the invention is dissolved in DMSO and a small aliquot further diluted with DMSO to 100 times the final concentration desired for testing. The reaction is carried out in a 6 X 50 mm tube in a total volume of 300 microliters. The final concentrations of the components in the reaction buffer are: 125 mM sodium acetate, 1 M sodium chloride, 5 mM dithiothreitol, 0.5 mg/ml bovine serum albumin, 1.3 µM fluorogenic substrate, 2% (v/v) dimethylsulfoxide, pH 4.5. After addition of inhibitor, the reaction mixture is placed in the fluorometer cell holder and incubated at 30°C for several minutes. The reaction is initiated by the addition of a small aliquot of cold HIV protease. The fluorescence intensity (excitation 340 nm, emmision 490 nM) is recorded as a function of time. The reaction rate is determined for the first six to eight minutes. The observed rate is directly proportional to the moles of substrate cleaved per unit time. The percent inhibition is 100 X (1 - (rate in presence of inhibitor)/(rate in absence of inhibitor)).
Fluorogenic substrate: Dabcyl-Gaba-Ser-Gln-Asn-Tyr-Pro-lle-Val-Gln-EDANS wherein DABCYL = 4-(4-dimethylamino-phenyl)azobenzoic acid, Gaba = γ-aminobutyric acid, and EDANS = 5-((2-aminoethyl)amino)-naphthalene-1-sulfonic acid.

HIVIIIB = assay: Antiviral activity (anti-HIV activity) in MT4 cells, MTT readout; assay type: cell-based; conditions: Human immunodeficiency virus 1, MT4, 120 h, read-out: IC50 (µM, 0% plasma)
Excerpt: (§1) The anti-HIV activity of the compound of the invention can be determined in MT4 cells according to the following procedure. MT4 cells were infected with cell-free supernatant of HIVIIIB (previously frozen with known 50% tissue culture infectious dose (TCID50) at 0.003 multiplicity of infection (MOI) for one hour. After one hour infection, cells were washed twice to remove residual viruses, resuspended in culture media and seeded into 96-well tissue culture plates at 1x10^4 cells per well with various half-log dilutions of compounds. Uninfected cells are included as toxicity and cell controls. RPMI 1640 media (Gibco ) with 10% fetal bovine serum were used as culture media. Various concentrations of human serum (Sigma) 50%, 25% and 12.5% were added to culture media resulting in final concentration of 60%, 35% and 22.5% total serum. All assay plates were incubated in 37 deg. cent. incubator for 5 days. MTT (sigma, 5 mg/ml stock in PBS) was added to all wells at 25 ul per well, incubate for 4 hours. 20%SDS with 0.02 N HCl in water was added at 50 ul per well to lyse cellls. Plates incubated overnight for complete lyses were read on a microtitre plate reader at 570/650 nm wavelengths to determine cell optical density (O.D.). Raw data were analysed for percent inhibition by the following formula: (O.D. test well - O.D. virus control)/(O.D. cell control -O.D. virus control)x100 [formula] The 50% effective concentration (EC50) was calculated by the median effect equation (Chou, 1975,Proc. Int. Cong. Pharmacol. 6th p. 619) to determine the efficacy of compound. The 50% lethal concentration (LC50) was calculated using uninfected MT4 cells.
(§2) Under these conditions, the following data were obtained (n = 4 duplicate determinations: Table 2

[1] = 50% lethal concentration in uninfected MT4 cells (MTT); assay type: cell-based; conditions: human, read-out: LC50
Excerpt: as §1, §2

Passaged HIV-1 = assay: Phenotypic susceptibility of in vitro passaged HIV-1 to the compound of Example 2B (MTT colorimetric assay); assay type: cell-based
[2] = test system: HIV Selected In Vitro by the Compound of Example 2B; assay: microbe, parasite or virus in culture; assay type: cell-based
[3] = test system: Ritonavir-Resistant Mutant HIV Clones; assay: microbe, parasite or virus in culture; assay type: cell-based
[4] = test system: Ritonavir-Resistant HIV from Patients; assay: microbe, parasite or virus in culture; assay type: cell-based

`Cc1cccc(C)c1OCC(=O)N[C@@H](Cc1ccccc1)[C@@H](O)C[C@H](Cc1ccccc1)NC(=O)[C@H](C(C)C)N1CCCNC1=O` [Example 2B, (2S, 3S, 5S)-2-(2,6-Dimethylphenoxyacetyl) amino-3-hydroxy-5-[2S-(1-tetrahydro-pyrimid-2-onyl)-3-methylbutanoyl] amino-1,6-diphenylhexane] showed an inhibition at 0.0005 µM (HIV protease) of 93.2%, an IC50 (HIVIIIB) of 0.016 µM and a CC50 at 120 h [1] of 17800 nM. The EC50 (Passaged HIV-1; Human immunodeficiency virus 1, 384 h, read-out: The compound of Example 2B EC50 (µM), Virus P2 (selected at 0.02 µM, 16 days in culture)) was 0.025 µM, the EC50 (Passaged HIV-1; Human immunodeficiency virus 1, NL43, read-out: The compound of Example 2B EC50 (µM), Virus NL4-3) was 0.028 µM and the EC50 (Passaged HIV-1; Human immunodeficiency virus 1, read-out: The compound of Example 2B EC50 (µM), Virus P6 (selected at 0.12 µM, 58 days in culture)) was 0.149 µM. For the same molecule, the EC50 (Passaged HIV-1; Human immunodeficiency virus 1, read-out: The compound of Example 2B EC50 (µM), Virus P7 (selected at 0.15 µM, 65 days in culture)) was 0.201 µM, the EC50 (Passaged HIV-1; Human immunodeficiency virus 1, read-out: The compound of Example 2B EC50 (µM), Virus P8 (selected at 0.21 µM, 75 days in culture)) was 0.295 µM and the EC50 (Passaged HIV-1; Human immunodeficiency virus 1, read-out: The compound of Example 2B EC50 (µM), Virus P9 (selected at 0.30 µM, 82 days in culture)) was 0.333 µM. It also gave an EC50 (Passaged HIV-1; Human immunodeficiency virus 1, read-out: The compound of Example 2B EC50 (µM), Virus P10 (selected at 0.30 µM, 93 days in culture)) of 0.464 µM, an EC50 (Passaged HIV-1; Human immunodeficiency virus 1, read-out: The compound of Example 2B EC50 (µM), Virus P11 (selected at 0.42 µM, 100 days in culture)) of 0.346 µM and an EC50 (Passaged HIV-1; Human immunodeficiency virus 1, read-out: The compound of Example 2B EC50 (µM), Virus P12 (selected at 0.62 µM, 107 days in culture)) of 0.291 µM. The EC50 (Passaged HIV-1; Human immunodeficiency virus 1, read-out: The compound of Example 2B EC50 (µM), Virus P13 (selected at 0.80 µM, 114 days in culture)) was 1 µM, the EC50 (Passaged HIV-1; Human immunodeficiency virus 1, read-out: The compound of Example 2B EC50 (µM), Virus P14 (selected at 1.10 µM, 121 days in culture)) was 1.11 µM and the EC50 (Passaged HIV-1; Human immunodeficiency virus 1, read-out: The compound of Example 2B EC50 (µM), Virus P15 (selected at 1.50 µM, 128 days in culture)) was 1.34 µM. For the same molecule, the EC50 (Passaged HIV-1; Human immunodeficiency virus 1, read-out: The compound of Example 2B EC50 (µM), Virus P16 (selected at 2.00 µM, 135 days in culture)) was 1.43 µM, the EC50 ([2]; Human immunodeficiency virus 1, NL43, Virus NL4-3) was 28 nM and the EC50 ([2]; Human immunodeficiency virus 1, Virus P7) was 116 nM. For the same molecule, the EC50 ([2]; Human immunodeficiency virus 1, Virus P11) was 349 nM, the EC50 ([2]; Human immunodeficiency virus 1, Virus P14) was 1280 nM and the EC50 ([2]; Human immunodeficiency virus 1, Virus P17) was 9480 nM. For the same molecule, the EC50 ([3]; Human immunodeficiency virus 1, HXB2, Virus Clone Wild Type (HXB2), 0% Human Serum) was 12 nM, the EC50 ([3]; Human immunodeficiency virus 1, HXB2, Virus Clone Wild Type (HXB2), 50% Human Serum) was 51 nM and the EC50 ([3]; Human immunodeficiency virus 1, Virus Clone E35D, M36I, I54V, A71V, V82T, 0% Human Serum) was 83 nM. The EC50 ([3]; Human immunodeficiency virus 1, Virus Clone E35D, M36I, I54V, A71V, V82T, 50% Human Serum) was 691 nM, the EC50 ([3]; Human immunodeficiency virus 1, Virus Clone G48V, 0% Human Serum) was 8 nM and the EC50 ([3]; Human immunodeficiency virus 1, Virus Clone G48V, 50% Human Serum) was 156 nM. The EC50 ([3]; Human immunodeficiency virus 1, Virus Clone I54V, V82T, 0% Human Serum) was 213 nM, the EC50 ([3]; Human immunodeficiency virus 1, Virus Clone I54V, V82T, 50% Human Serum) was 1150 nM and the EC50 ([3]; Human immunodeficiency virus 1, Virus Clone I84V, 0% Human Serum) was 20 nM. For the same molecule, the EC50 ([3]; Human immunodeficiency virus 1, Virus Clone I84V, 50% Human Serum) was 170 nM, the EC50 ([3]; Human immunodeficiency virus 1, Virus Clone K20R, E35D, M36I, I54V, A71V, V82T, 0% Human Serum) was 93 nM and the EC50 ([3]; Human immunodeficiency virus 1, Virus Clone K20R, E35D, M36I, I54V, A71V, V82T, 50% Human Serum) was 376 nM. For the same molecule, the EC50 ([3]; Human immunodeficiency virus 1, Virus Clone L90M, 0% Human Serum) was 16 nM, the EC50 ([3]; Human immunodeficiency virus 1, Virus Clone L90M, 50% Human Serum) was 180 nM and the EC50 ([3]; Human immunodeficiency virus 1, Virus Clone V82A, 0% Human Serum) was 33 nM. The EC50 ([3]; Human immunodeficiency virus 1, Virus Clone V82A, 50% Human Serum) was 268 nM, the EC50 ([3]; Human immunodeficiency virus 1, Virus Clone V82F, 0% Human Serum) was 26 nM and the EC50 ([3]; Human immunodeficiency virus 1, Virus Clone V82F, 50% Human Serum) was 147 nM. For the same molecule, the EC50 ([3]; Human immunodeficiency virus 1, Virus Clone V82S, 0% Human Serum) was 26 nM, the EC50 ([3]; Human immunodeficiency virus 1, Virus Clone V82S, 50% Human Serum) was 314 nM and the EC50 ([3]; Human immunodeficiency virus 1, Virus Clone V82T, 50% Human Serum) was 147 nM. The EC50 ([3]; Human immunodeficiency virus 1, Virus Clone Wild Type (pNL4-3), 0% Human Serum) was 22 nM, the EC50 ([3]; Human immunodeficiency virus 1, Virus Clone Wild Type (pNL4-3), 50% Human Serum) was 126 nM and the EC50 ([4]; Human immunodeficiency virus 1, 24 h, Patient No. 313, Day 1, baseline) was 4 nM. The EC50 ([4]; Human immunodeficiency virus 1, 24 h, Patient No. 410, Day 1, baseline) was 6 nM, the EC50 ([4]; Human immunodeficiency virus 1, 504 h, Patient No. 104, Day 21, V82A) was 9 nM and the EC50 ([4]; Human immunodeficiency virus 1, 672 h, Patient No. 104, Day 28, V82T) was 13 nM. For the same molecule, the EC50 ([4]; Human immunodeficiency virus 1, Patient No. 104, Day -1, baseline) was 8 nM, the EC50 ([4]; Human immunodeficiency virus 1, Patient No. 129, Day 84, M36I, I54V, A71V, V82T) was 33 nM and the EC50 ([4]; Human immunodeficiency virus 1, Patient No. 129, Day 140, K20K/R, M36M/I, I54V, A71A/V, V82T) was 29 nM. For the same molecule, the EC50 ([4]; Human immunodeficiency virus 1, Patient No. 129, Day -1, baseline) was 5 nM, the EC50 ([4]; Human immunodeficiency virus 1, Patient No. 131, Day 88, M36I, 154V>I, V82A) was 15 nM and the EC50 ([4]; Human immunodeficiency virus 1, Patient No. 131, Day 200, K20K/R, M36I, I54I/V, V82A) was 52 nM. It also gave an EC50 ([4]; Human immunodeficiency virus 1, Patient No. 131, Day -28, baseline) of 4 nM, an EC50 ([4]; Human immunodeficiency virus 1, Patient No. 224, Day 110, L33L/F, V82T/S) of 12 nM and an EC50 ([4]; Human immunodeficiency virus 1, Patient No. 224, Day 190, K20K/N/R, L33L/F, M36M/I, I54V/M, V82S) of 52 nM. The EC50 ([4]; Human immunodeficiency virus 1, Patient No. 224, Day -6, baseline) was 6 nM, the EC50 ([4]; Human immunodeficiency virus 1, Patient No. 235, Day 167, I54I/V, A71V, V82A. L90L/M) was 6 nM and the EC50 ([4]; Human immunodeficiency virus 1, Patient No. 235, Day -1, baseline) was 6 nM. It also gave an EC50 ([4]; Human immunodeficiency virus 1, Patient No. 313, Day 57, M36M/I, V82F) of 11 nM, an EC50 ([4]; Human immunodeficiency virus 1, Patient No. 313, Day 85, M36M/I, I54I/V, V82S/F/A/T) of 25 nM and an EC50 ([4]; Human immunodeficiency virus 1, Patient No. 410, Day 57, M36M/I, I54I/V, V82A) of 33 nM. The EC50 ([4]; Human immunodeficiency virus 1, Patient No. 410, Day 85, M36I, I54V, V82A) was 97 nM.
